Experimental data reported in publication PMC7663184, “Vitamin B3-Based Biologically Active Compounds as Inhibitors of Human Cholinesterases” (International Journal of Molecular Sciences, 2020).
Entries after “also recorded” stand apart in the source; their conditions may differ.

Assays:
human AChE = human AChE (Homo sapiens, UniProt P22303); assay: AChE reversible inhibition (Ellman's method, Hunter–Downs evaluation); assay type: biochemical; details: for Ki: human erythrocyte AChE, ATCh substrate, 0.1 M sodium phosphate buffer pH 7.4, at least three experiments, read-out: Ki ± SE AChE; for Ki (AChE)/Ki (BChE): selectivity ratio of measured Ki values
Source text: The determined BChE phenotype was UU (usual).

human BChE = human BChE (Homo sapiens, UniProt P06276); assay: BChE reversible inhibition (Ellman's method, Hunter–Downs evaluation)
[1] = Cytotoxicity assay (MTS) on HEK293 cells; assay type: cell-based
Description: (§1) SH-SY5Y were grown in DMEM F12 (Sigma-Aldrich, Steinheim, Germany) supplemented with 15% (v/v) fetal bovine serum (Sigma-Aldrich, Steinheim, Germany), 1% (v/v) non-essential amino acids (NEAA, Sigma-Aldrich, Steinheim, Germany) and 1% (v/v) antibiotics solution Penicilin-Streptomycin (Sigma-Aldrich, Steinheim, Germany) while HEK293 were grown in EMEM (Sigma-Aldrich, Steinheim, Germany) supplemented with 10% (v/v) fetal bovine serum (Sigma-Aldrich, Steinheim, Germany), 1% (v/v) non-essential amino acids (NEAA, Sigma-Aldrich, Steinheim, Germany) and 1% (v/v) antibiotics solution Penicilin-Streptomycin (Sigma-Aldrich, Steinheim, Germany).
(§2) After cultivation, the cells were detached using 0.25% Trypsin/EDTA solution (Sigma-Aldrich, St. Louis, MO, USA), re-suspended and seeded at density of 20,000 cells/well in 96-well plates for experiments. The assay in 96-well was performed in 120 µL/well media volume. […] The procedure followed a previously described protocol and the manufacturer’s recommendations. […] Data was evaluated from at least two or three experiments (each in duplicate or triplicate) using IC50 nonlinear fit equation predefined in Prism6 software and presented as percentage of inhibition to control untreated cells.

[2] = Cytotoxicity assay (MTS) on SH-SY5Y cells; assay type: cell-based; details: human; SH-SY5Y cells, MTS assay, 6.25–800 µM, mean of at least three experiments with standard error
Description: as §1, §2

phospho-AMPK (Thr172) = assay: Intracellular signalling by Western blot: phospho-AMPK; assay type: cell-based, human; details: serum-starved HEK293 cells, 100 μM, 10 or 30 min, vs. Basal
Description: (§3) Intracellular signalling in the presence of the selected nicotinamide derivative was evaluated on HEK293 cells. To enhance attachment of HEK293 cells, 12-well plates were aseptically pre-coated with poly-lysin (50 µg/mL, 0.5 mL/well). After 1-h incubation, the solution was removed, surface rinsed with sterile demineralized water and allowed to dry for 1 h. HEK293 cells were seeded at a density of 300,000 cells/well in DMEM (1 g/L glucose, Gibco, Paisley, UK) supplemented with 10% (v/v) FBS (Gibco, Paisley, UK) and 1% (v/v) Pen-Strep (Gibco, Paisley, UK). The next day (after 20 h) the medium was replaced with DMEM without additions. The cells were serum-starved for 4 h. During the last 10 and 30 min, the cells were treated with 100 μM 3, 4, 5 or 8. Basal (control) samples were treated with vehicle (DMSO) for 30 min. At the end of the experiment, cells were washed with ice-cold PBS and lysed in Laemmli buffer (62.5 mM Tris-HCl (pH 6.8), 2% (w/v) sodium dodecyl sulfate (SDS), 10% (w/v) glycerol, 5% (v/v) 2-mercaptoethanol, 0.002% (w/v) bromophenol blue). The proteins were resolved with SDS-PAGE (precasted 4–12% polyacrylamide gels, Bio-Rad, CA, USA) and transferred to the PVDF membrane (Merck Millipore, Darmstadt, Germany) with wet electrotransfer using Criterion system and Bis-Tris gradient gels (Bio-rad, CA, USA). After the transfer, the membranes were stained with Ponceau S (0.1% (w/v) in 5% (v/v) acetic acid) to evaluate uniformity of sample loading and efficiency of transfer. The membranes were then blocked with 7.5% (w/v) dry milk in Tris-buffered saline with Tween 20 (TBST: 20 mM Tris, 150 mM NaCl, 0.02% (v/v) Tween 20, pH 7.5) for 1 h at room temperature. After blocking, the membranes were incubated with the primary antibody in the primary antibody buffer (20 mM Tris, 150 mM NaCl, pH 7.5, 0.1% (w/v) BSA and 0.1% (w/v) sodium azide) overnight at 4 °C and then with the secondary antibody-horseradish peroxidase conjugate (Bio-Rad, CA, USA) in TBST with 5% (w/v) dry milk for 1 h at room temperature. Finally, the membranes were incubated with enhanced chemiluminescence (ECL) reagent (Bio-Rad, CA, USA) and then immunolabelled proteins were visualized on X-ray films. Films were scanned with GS-800 Densitometer (Bio-Rad, CA, USA) and analysed with Quantity One 1-D 4.6.8 Analysis Software (Bio-Rad, CA, USA). […] Target proteins were detected using primary antibodies against phospho-Akt (Ser473, Cell Signaling #4060, Netherlands) phospho-ERK1/2 (Thr202/Tyr204, Cell Signaling #4370, Netherlands), phospho-S6 ribosomal protein (Ser235/236, Cell Signaling #2211, Netherlands), phospho-AMPK (Thr172, Cell Signaling #2535, Netherlands), phospho-acetyl-CoA carboxylase (Ser79, Cell Signaling #3661, Netherlands) and HIF-1α (Novus Biologicals NB100–449, CO, USA).

phospho-Akt (Ser473) = assay: Intracellular signalling by Western blot: phospho-Akt; assay type: cell-based, human; details: serum-starved HEK293 cells, 100 μM, 10 or 30 min, vs. Basal
Description: as §3

phospho-ACC (Ser79) = assay: Intracellular signalling by Western blot: phospho-ACC; assay type: cell-based, human; details: serum-starved HEK293 cells, 100 μM, 10 or 30 min, vs. Basal
Description: as §3

[3] = system: phospho-S6RP (Ser235/236); assay: Intracellular signalling by Western blot: phospho-S6RP; assay type: cell-based, human; details: serum-starved HEK293 cells, 100 μM, 10 or 30 min, vs. Basal
Description: as §3

[4] = system: phospho-ERK1/2 (Thr202/Tyr204); assay: Intracellular signalling by Western blot: phospho-ERK1/2; assay type: cell-based, human; details: serum-starved HEK293 cells, 100 μM, 10 or 30 min, vs. Basal
Description: as §3

HEK293 cells = assay: Cytotoxicity assay (MTS) on HEK293 cells; assay type: cell-based; details: for time dependence of cytotoxicity on HEK293 cells: 1-, 4- and 24-h treatment
Description: as §1, §2

SH-SY5Y cells = assay: Cytotoxicity assay (MTS) on SH-SY5Y cells; assay type: cell-based; details: 1-, 4- and 24-h treatment
Description: as §1, §2

HIF-1α = assay: Intracellular signalling by Western blot: HIF-1α abundance; assay type: cell-based, human; details: serum-starved HEK293 cells, 100 μM, 10 or 30 min, vs. Basal
Description: as §3

AChE [5] = details: ref [47]; cited from earlier work
AChE [6] = details: ratio of literature Ki values from [47], [48],[49]
BChE = details: cited from earlier work
[7] = human, HEK293 cells, MTS assay, 6.25–800 µM, mean of at least three experiments with standard error

Chain of human BChE (P06276 29-602): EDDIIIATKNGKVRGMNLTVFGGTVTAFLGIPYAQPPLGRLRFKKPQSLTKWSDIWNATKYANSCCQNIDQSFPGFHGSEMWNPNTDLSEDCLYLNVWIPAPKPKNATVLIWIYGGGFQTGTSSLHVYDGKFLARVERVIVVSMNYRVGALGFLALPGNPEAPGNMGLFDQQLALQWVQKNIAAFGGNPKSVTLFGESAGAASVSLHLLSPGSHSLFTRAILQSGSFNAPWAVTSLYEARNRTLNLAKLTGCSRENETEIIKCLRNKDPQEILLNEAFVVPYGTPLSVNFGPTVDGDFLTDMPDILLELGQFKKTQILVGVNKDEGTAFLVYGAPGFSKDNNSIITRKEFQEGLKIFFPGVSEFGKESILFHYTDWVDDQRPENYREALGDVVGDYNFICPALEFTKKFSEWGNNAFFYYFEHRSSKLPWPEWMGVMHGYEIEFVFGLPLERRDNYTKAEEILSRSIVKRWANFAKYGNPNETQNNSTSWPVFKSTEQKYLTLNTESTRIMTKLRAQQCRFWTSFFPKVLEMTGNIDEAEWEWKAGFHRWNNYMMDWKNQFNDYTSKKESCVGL
Chain of human AChE (P22303 other isoform, or with tags, fused parts or gaps): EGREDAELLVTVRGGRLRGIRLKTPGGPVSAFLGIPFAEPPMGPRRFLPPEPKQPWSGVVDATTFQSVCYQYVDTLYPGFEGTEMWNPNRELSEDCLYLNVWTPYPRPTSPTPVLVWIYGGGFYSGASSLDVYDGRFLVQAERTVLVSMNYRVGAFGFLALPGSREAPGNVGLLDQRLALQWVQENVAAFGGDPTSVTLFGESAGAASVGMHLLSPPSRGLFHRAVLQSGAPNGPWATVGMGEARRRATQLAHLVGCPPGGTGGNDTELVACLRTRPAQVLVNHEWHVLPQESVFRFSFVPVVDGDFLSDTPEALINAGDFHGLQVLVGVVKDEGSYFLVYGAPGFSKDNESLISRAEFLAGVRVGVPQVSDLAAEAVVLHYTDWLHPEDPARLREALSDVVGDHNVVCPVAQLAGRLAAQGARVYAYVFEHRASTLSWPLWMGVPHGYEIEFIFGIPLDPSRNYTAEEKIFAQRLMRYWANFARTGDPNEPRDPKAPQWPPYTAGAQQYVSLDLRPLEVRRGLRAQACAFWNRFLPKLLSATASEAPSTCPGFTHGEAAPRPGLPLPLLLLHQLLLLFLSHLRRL

Row | SMILES | Ki (human AChE) | Ki (AChE)/Ki (BChE) (human AChE) | Ki (human BChE) | IC50 [1, 7] | IC50 [2] | phosphorylation of AMPK (Thr172) (phospho-AMPK (Thr172)) | phosphorylation of Akt (Ser473) (phospho-Akt (Ser473)) | phosphorylation of ACC (Ser79) (phospho-ACC (Ser79)) | phosphorylation of S6RP (Ser235/236) [3] | phosphorylation of ERK1/2 (Thr202/Tyr204) [4] | time dependence of cytotoxicity on HEK293 cells (HEK293 cells) | IC50 (HEK293 cells; HEK293 cells, MTS assay, 6.25–800 µM, mean of at least three experiments with standard error) | time dependence of cytotoxicity on SH-SY5Y cells (SH-SY5Y cells) | abundance of HIF-1α (HIF-1α) | IC50 ([1]; human; HEK293 cells, MTS assay, 6.25–800 µM, mean of at least three experiments with standard error) | Ki (AChE [5]) | Ki (AChE)/Ki (BChE) (AChE [6]) | Ki (BChE; ref [47]) | IC50 (BChE; IC50 values per footnote 3, ref [50]) | preference for binding to AChE over BChE (human AChE; selectivity from Ki values)
1 | NC(=O)c1ccc[n+](CC(=O)c2ccc(F)cc2)c1 [Compound 2] | 85 ± 15 µM | 0.14 | 595 ± 73 µM | ≥ 800 µM | ≥ 800 µM | – | – | – | – | – | – | – | – | – | – | – | – | – | – | –
2 | NC(=O)c1ccc[n+](CC(=O)c2ccc(Br)cc2)c1 [Compound 4] | 11 ± 3 µM | 0.23 | 47 ± 15 µM | ~85 µM | 501 ± 2 µM | did not respond | suppressing | did not respond | increased | tended to transiently increase | time-dependent mechanism | 83 ± 1 µM | time-dependent mechanism | increased | – | – | – | – | – | –
3 | NC(=O)c1ccc[n+](CC(=O)c2ccc(-c3ccccc3)cc2)c1.[Br-] [Compound 8, 1-(4′-phenylphenacyl)-3-carbamoylpyridinium bromide] | 4 ± 0.2 µM | 0.50 | – | – | 257 ± 1 µM | not significantly altered | markedly pronounced | increased phosphorylation | unaltered | reached statistical significance; also recorded: marked increase | – | – | time-dependent mechanism | increased | 155 ± 1 µM | – | – | – | – | –
4 | NC(=O)c1ccc[n+](CC(=O)c2ccccc2)c1 [Compound 1] | 79 ± 11 µM | 0.34 | 232 ± 20 µM | ≤ 800 µM | ≥ 800 µM | – | – | – | – | – | – | – | – | – | – | – | – | – | – | –
5 | CCN(CC)C(C)CN1c2ccccc2Sc2ccccc21 (stereo not drawn) [Ethopropazine] | – | – | – | – | – | – | – | – | – | – | – | – | – | – | – | 161 µM | 1010 | 0.16 µM | – | –
6 | NC(=O)c1ccc[n+](CC(=O)c2ccc(Cl)cc2)c1 [Compound 3] | 33 ± 5 µM | 0.15 | 224 ± 23 µM | ~85 µM | ≤ 800 µM | did not respond | suppressing | did not respond | increased | tended to transiently increase | time-dependent mechanism | – | time-dependent mechanism | not statistically significant | – | – | – | – | – | –
8 | COc1ccccc1C(=O)C[n+]1cccc(C(N)=O)c1 [Compound 9] | 26 ± 4 µM | 0.14 | 180 ± 18 µM | ≥ 800 µM | ≥ 800 µM | – | – | – | – | – | – | – | – | – | – | – | – | – | – | –
9 | NC(=O)c1ccc[n+](CC(=O)c2ccc([N+](=O)[O-])cc2)c1 [Compound 5] | 39 ± 5 µM | 0.27 | 145 ± 24 µM | 417 ± 1 µM | 214 ± 5 µM | markedly increased | markedly pronounced | markedly increased | decreased | reached statistical significance; also recorded: marked increase | time-dependent mechanism | – | time-dependent mechanism | unaltered | – | – | – | – | – | –
10 | COc1ccc(C(=O)C[n+]2cccc(C(N)=O)c2)cc1 [Compound 7] | 19 ± 2 µM | 0.08 | 216 ± 34 µM | ≥ 800 µM | ≥ 800 µM | – | – | – | – | – | – | – | – | – | – | – | – | – | – | –
11 | Cc1ccc(C(=O)C[n+]2cccc(C(N)=O)c2)cc1 [Compound 6] | 3 ± 1 µM | 0.01 | 242 ± 22 µM | ≤ 800 µM | ≥ 800 µM | – | – | – | – | – | – | – | – | – | – | – | – | – | – | up to 80 times
